How the values were obtained:
[1] = test system: HEK293 cells; experiment: NAD+ measurement in HEK293 cells (NAD+ cycling assay); conditions: for cellular NAD concentration: 6 hours of incubation, 50-500 μM
Procedure: Cell number were counted using hemocytometer.
After 6 hours of incubation, cells were harvested with Trypsin. A cell count was obtained from each cell suspension by hemacytometer. The cell pellets were used for NAD^+ measurement.
Water-only and nicotinamide riboside (NR) control treatments were run.
HEK cells were plated in 6-well plates until 90% confluent. […] After 6 hours of incubation, cells were harvested with Trypsin. A cell count was obtained from each cell suspension by hemacytometer. The cell pellets were used for NAD^+ measurement.

[2] = test system: INS1 cells; experiment: Glucose-induced insulin secretion test in INS1 cells with hydrogen peroxide challenge; format: cell-based; conditions: 1 mM, 100 μM hydrogen peroxide, 15 mmol/l glucose
Procedure: To induce insulin secretion, INS1 cells were seeded in 6-well plate. The cells were accommodated to low glucose RPMI-1640 media with 5 mmol/1 D-glucose overnight. Insulin secretion was assayed in HEPES balanced salt solution (HESS) (114 mmol/1 NaCl, 4.7 mmol/1 KCl, 1.2 mmol/1 KH2PO4, 1.16 mmol/1 MgSO4, 20 mmol/1 HEPES, 2.5 mmol/1 CaCl2, 25.5 mmol/1 NaHCO3, and 0.2% bovine serum albumin [essentially fatty acid free], pH 7.2). Cells wore washed in 1 ml HESS with 3 mmol/1 glucose followed by a 2 hr preincubation in 2 ml of the same buffer. Insulin secretion was then measured by incubating 1 hr 1 ml of HESS containing the 3 mmol/1 or 15 mmol/1 glucose concentration. The media was then collected for insulin analysis using RayBio™ Rat Insulin ELISA kit according to manufacturer's manual. In hydrogen peroxide challenge, 100 μM hydrogen peroxide were added to media together with 3 mmol/1 glucose containing HESS and incubated for 2 hr before switch to 15 mmol/l glucose containing HBSS for insulin secretion.

[3] = HEK cells, 50 μM, 6 hours, percentages of average NAD^+ as compared to control

CCCCOC(=O)C1=CN([C@@H]2O[C@H](CO)[C@H](O)[C@@H]2O)C=CC1 [Bu NaR—H, butyl-1-((2R,3S,4R,5R)-3,4-dihydroxy-5-(hydroxymethyl)tetrahydrofuran-2-yl)-1,4-dihydropyridine-3-carboxylate]
Average NAD^+ (pmoles/10^6 cells) [1, 3]: 124%

CCOC(=O)C1=CN([C@@H]2O[C@H](CO)[C@H](O)[C@@H]2O)C=CC1 [Et NaR-H, ethyl-1-((2R,3S,4R,5R)-3,4-dihydroxy-5-(hydroxymethyl)tetrahydrofuran-2-yl)-1,4-dihydropyridine-3-carboxylate]
cellular NAD concentration ([1]; HEK cells): increased

CCCCCCCOC(=O)C1=CN([C@@H]2O[C@H](CO)[C@H](O)[C@@H]2O)C=CC1 [Hep NaR—H, heptyl-1-((2R,3S,4R,5R)-3,4-dihydroxy-5-(hydroxymethyl)tetrahydrofuran-2-yl)-1,4-dihydropyridine-3-carboxylate]
Average NAD^+ (pmoles/10^6 cells) [1, 3]: 124%

NC(=O)c1ccc[n+]([C@@H]2O[C@H](CO)[C@@H](O)[C@H]2O)c1 [NR, nicotinamide riboside]
insulin secretion level under hydrogen peroxide [2]: restored the insulin secretion level back to a similar extent as untreated control
increase in NAD^+ ([1]; HEK293, 1000 mM as printed (1 mM elsewhere in the source)): 148%
Average NAD^+ (pmoles/10^6 cells) ([1]; HEK293, 1000 mM as printed in table (1 mM elsewhere in the source), compared to control): 148%

CCCCCCCCOC(=O)C1=CN([C@@H]2O[C@H](CO)[C@H](O)[C@@H]2O)C=CC1 [Oct NaR—H, octyl-1-((2R,3S,4R,5R)-3,4-dihydroxy-5-(hydroxymethyl)tetrahydrofuran-2-yl)-1,4-dihydropyridine-3-carboxylate]
Average NAD^+ (pmoles/10^6 cells) [1, 3]: 112%

CCCOC(=O)C1=CN([C@@H]2O[C@H](CO)[C@H](O)[C@@H]2O)C=CC1 [Pr NaR-H, propyl-1-((2R,3S,4R,5R)-3,4-dihydroxy-5-(hydroxymethyl)tetrahydrofuran-2-yl)-1,4-dihydropyridine-3-carboxylate]
cellular NAD concentration ([1]; HEK cells): increased

— patent US11926644B2, “Syntheses, activities, and methods of use of dihydronicotinamide riboside derivatives” (Cornell University, priority 2015, dated 2024)
